The source of these data is article PMC8092523 (Antimicrobial Agents and Chemotherapy, 2021).

In test [1] the test system is mc^27000:Δc− strain with pYL60 or pYL3. Format: cell-based, M. tuberculosis.
In the next test the test system is pYL42 and pYL53 strains. Format: cell-based, Mycobacterium smegmatis.

Take `CN[C@@H]1[C@H](O)[C@H](NC)[C@H]2O[C@]3(O)[C@H](O[C@@H]2[C@H]1O)O[C@H](C)C[C@H]3NC(=O)Cc1ccc(Cl)cn1` [Spa]: in test [1], the “bactericidal activity against pYL60 strain compared with pYL3 control strain” value is “significantly decreased”. Also, the “bactericidal activity against pYL53 compared with pYL42 strain” value in the test with pYL42 and pYL53 strains is on record as “at least an order of magnitude lower”.
